Key:
[1] = Cyclic voltammetry, oxidation peak voltage; type: physicochemical
Description: First, the optimum voltage for removing each phenolic compound through the electrochemical treatment was determined by cyclic voltammetry. […] In FIG. 1, the abscissa represents voltage (V) and the ordinate represents current (A). […] This means that each of the phenolic compounds is removed by oxidation at the intrinsic voltage.
(§1) A potentiostat (WonA Tech, WMPG 1000) was used for the electrochemical treatment of the medium. Graphite felt was used as an electrode. Specifically, the electrochemical treatment was conducted for by 5 hours at an oxidation peak voltage of each fermentation inhibitor (800 mV for coumaric acid and ferulic acid, 2 V for syringaldehyde and vanillin, 1.8 V for furfural and 5-hydroxyfurfural). Then, the fermentation inhibitors were removed using such methods as gravitational sedimentation, centrifugation, membrane separation, etc. The percentage of the removal rate is wt %.

[2] = Electrochemical treatment of medium, removal rate of phenolic and furanic compounds; type: physicochemical; details: 0.5 g/L added to medium; for Removal rate: wt %
Description: In order to measure the removal rate of phenolic and furanic compounds, p-coumaric acid, ferulic acid, syringaldehyde and vanillin were selected as phenolic compounds and furfural and 5-hydroxymethylfurfural were selected as furanic compounds. After adding 0.5 g/L of each of the selected 6 inhibitors to a medium, electric current was flown at each optimum oxidation voltage and then removal rate was measured.
as §1
(§2) After the culturing was completed, the concentrations of phenolic and furanic compounds, sugars and acetic acid were measured for each culture. The concentration was analyzed by liquid chromatography (Agilent model 1200). The phenolic compounds were analyzed using a diode array detector and a Zorbax eclipse XDB-C18 column (150×4.6 mm, 3.5 μm). The sugars and acetic acid were analyzed using a refractive index detector and an Aminex HPX-87H column (300×7.8 mm). The growth of the microorganisms was analyzed by measuring absorbance at 600 nm with a spectrophotometer (UVmini-1240, Shimadzu). The concentration of butyric acid and butanol was analyzed using a gas chromatography system (Agilent technology 6890N Network GC system) equipped with a flame ionized detector and an HP-INNOWax column (30 m×250 μm×0.25 μm, Agilent Technologies).

[3] = test system: Clostridium tyrobutyricum; test: Production of butyric acid by Clostridium tyrobutyricum; type: cell-based; details: 0.5 g/L in medium, after electrochemical treatment at optimum voltage, FIG. 3
Source text: (§3) As a butyric acid fermentation medium, a medium containing 20 g of glucose, 5 g of yeast extract, 0.2 g of magnesium sulfate, 0.01 g of manganese sulfate, 0.01 g of ferric sulfate, 0.01 g of sodium chloride, 0.5 g of monopotassium phosphate (KH2PO4), 0.5 g of dipotassium phosphate (K2HPO4) and 2 g of ammonium acetate per 1 L of the medium was used. As a butanol fermentation medium, a medium containing 20 g of glucose, 1 g of yeast extract, 0.2 g of magnesium sulfate, 0.01 g of manganese sulfate, 0.01 g of ferric sulfate, 0.01 g of sodium chloride, 0.5 g of monopotassium phosphate (KH2PO4), 0.5 g of dipotassium phosphate (K2HPO4) and 2 g of ammonium acetate per 1 L of the medium was used. Each medium was gas-substituted with argon gas and sterilized at 121° C. for 15 minutes before the experiment. […]
as §2, with “The concentration of butyric acid and butanol was analyzed using a gas chromatography system (Agilent technology 6890N Network GC system) equipped with a flame ionized detector and an HP-INNOWax column (30 m×250 μm×0.25 μm, Agilent Technologies).” left out

[4] = test system: Clostridium tyrobutyricum; test: Cellular growth of Clostridium tyrobutyricum (absorbance at 600 nm); type: cell-based; details: 0.5 g/L in medium, before electrochemical treatment, FIG. 2, read-out: inhibition of the growth of the microorganisms
Source text: as §3
as §2, with “The concentration of butyric acid and butanol was analyzed using a gas chromatography system (Agilent technology 6890N Network GC system) equipped with a flame ionized detector and an HP-INNOWax column (30 m×250 μm×0.25 μm, Agilent Technologies).” left out

Clostridium beijerinckii = test: Production of butanol by Clostridium beijerinckii; type: cell-based; details: 0.5 g/L in medium, after electrochemical treatment, FIG. 5
Source text: as §3
as §2, with “The concentration of butyric acid and butanol was analyzed using a gas chromatography system (Agilent technology 6890N Network GC system) equipped with a flame ionized detector and an HP-INNOWax column (30 m×250 μm×0.25 μm, Agilent Technologies).” left out

[5] = 1st treatment, 5 hours at oxidation peak voltage

Row | Structure (SMILES) | oxidation peak voltage [1] | Post-treatment concentration [2, 5] [g/L] | Removal rate [2, 5] [%] | Post-treatment concentration ([2]; 2nd treatment) [g/L] | Removal rate ([2]; 2nd treatment) [%] | toxicity reduced by the electrochemical treatment [3] [%] | inhibition at 500 µg/mL [4] [%] | decrease in butanol production recovered by the electrochemical treatment (Clostridium beijerinckii) [%]
1 | COc1cc(/C=C/C(=O)O)ccc1O [Ferulic acid, ferulic acid] | 800 mV | 0.3475 | 30.5 | 0.1155 | 76.9 | – | – | –
2 | O=Cc1ccc(CO)o1 [HMF, 5-hydroxymethylfurfural] | 1.8 V | 0 | 100 | 0 | 100 | – | – | –
3 | COc1cc(C=O)ccc1O [Vanillin, vanillin] | 2 V | 0.251 | 49.8 | 0.089 | 82.2 | – | – | –
4 | O=Cc1ccco1 [Furfural, furfural] | 1.8 V | 0 | 100 | 0 | 100 | – | – | –
5 | O=C(O)/C=C/c1ccc(O)cc1 [p-Coumaric acid, p-coumaric acid] | 800 mV | 0.25 | 50.0 | 0.11 | 78.0 | ~100 | ~100 | ~100
6 | COc1cc(C=O)cc(OC)c1O [Syringaldehyde, syringaldehyde] | 2 V | 0.109 | 78.2 | 0.0265 | 94.7 | – | – | –

Source: US20160024535A1, “ELECTROCHEMICAL DETOXIFICATION METHOD OF WOOD-BASED HYDROLYSATE FOR PRODUCING BIOCHEMICALS OR BIOFUELS, AND DETOXIFIED WOOD-BASED HYDROLYSATE” (Korea Institute of Science and Technology, priority 2013, published 2016)
